Drawing on patent US11524966B1 (Valo Early Discovery, Inc., priority 2017, dated 2022), this text covers IC50 for 16 molecules.

Usually IC50 stands for the point on the concentration scale where inhibition reaches its midpoint.

The assay addresses T1, USP28 (His-tagged USP28-FL-mammalian) (Homo sapiens, UniProt Q96RU2).
T1 construct: Expression of USP28 (1-1077)-TEV-6*His (pTT5 vector); made in house; host or cells: Expi293f cells (pTT5 vector)
T1 sequence (Q96RU2 1-1077): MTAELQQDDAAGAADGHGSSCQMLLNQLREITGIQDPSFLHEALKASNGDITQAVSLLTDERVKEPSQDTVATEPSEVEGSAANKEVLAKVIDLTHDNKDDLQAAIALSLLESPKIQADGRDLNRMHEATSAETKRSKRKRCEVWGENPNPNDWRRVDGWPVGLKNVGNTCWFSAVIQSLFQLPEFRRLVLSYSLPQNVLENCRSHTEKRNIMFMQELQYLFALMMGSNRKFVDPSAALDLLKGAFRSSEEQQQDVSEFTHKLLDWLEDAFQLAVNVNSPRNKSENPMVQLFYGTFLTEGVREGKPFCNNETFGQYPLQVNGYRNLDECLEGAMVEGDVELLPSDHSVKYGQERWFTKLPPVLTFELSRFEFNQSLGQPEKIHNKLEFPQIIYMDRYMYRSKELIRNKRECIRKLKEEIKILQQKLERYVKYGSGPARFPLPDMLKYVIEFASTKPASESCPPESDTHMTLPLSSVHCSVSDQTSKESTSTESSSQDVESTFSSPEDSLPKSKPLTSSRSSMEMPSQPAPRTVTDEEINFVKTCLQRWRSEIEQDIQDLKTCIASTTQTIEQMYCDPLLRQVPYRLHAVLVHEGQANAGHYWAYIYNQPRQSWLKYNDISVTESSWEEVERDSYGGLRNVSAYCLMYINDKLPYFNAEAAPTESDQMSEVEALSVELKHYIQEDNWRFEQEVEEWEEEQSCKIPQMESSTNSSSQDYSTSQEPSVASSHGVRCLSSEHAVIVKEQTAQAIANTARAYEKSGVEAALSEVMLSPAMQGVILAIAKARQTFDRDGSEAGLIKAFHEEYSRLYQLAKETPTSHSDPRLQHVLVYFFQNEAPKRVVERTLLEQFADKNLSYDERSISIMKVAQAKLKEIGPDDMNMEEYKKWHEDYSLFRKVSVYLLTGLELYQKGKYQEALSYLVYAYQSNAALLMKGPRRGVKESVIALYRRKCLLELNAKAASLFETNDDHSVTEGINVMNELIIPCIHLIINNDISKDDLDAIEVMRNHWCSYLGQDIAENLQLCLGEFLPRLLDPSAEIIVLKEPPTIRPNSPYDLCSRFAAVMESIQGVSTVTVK
Briefly: Ubiquitin-Rhodamine 110 Assay for USP28 Activity, Example A-1(a). Conditions: Ubiquitin-Rhodamine 110 assay, Example A-1(a); read-out: USP28 A-1(a) IC50 range. It counts as biochemical. Here is the method:
Example A-1(a): Biochemical Assay: Ubiquitin-Rhodamine 110 Assay for USP28 Activity
The assay was performed in a final volume of 9 μL in assay buffer containing 20 mM Tris-HCl (pH 8.0, (1M Tris-HCl, pH 8.0 solution; Corning 46-031-CM)), 3 mM BME (2-Mercaptoethanol; Sigma 63689-25ML-F), 0.03% BGG (0.22 μM filtered, Sigma, G7516-25G), and 0.01% Triton X-100 (Sigma, T9284-10L). Nanoliter quantities of 10-point, 3-fold serial dilution in DMSO was pre-dispensed into 1536 assay plates (Corning, #3724BC) for a final test concentration of 25 μM to 1.3 nM, top to lowest dose, respectively. Enzyme USP28, construct His-tagged USP28-FL-mammalian, (protein expression and purification procedure described below). Concentration and incubation times were optimized for the maximal signal-to-background while maintaining initial velocity conditions at a fixed substrate concentration. The final concentration of the enzyme in the assay was 75 μM. Final substrate (Ub-Rh110; Ubiquitin-Rhodamine 110, UbiQ-126) concentration was 25 nM with [Ub-Rh110]<<Km. 3 μL of 2× enzyme was added to assay plates (pre-stamped with compound) preincubated with […] for 30 minutes and then 3 μL of 2×Ub-Rh110 was added to assay plates. Plates were incubated for 45 minutes at room temperature before addition of 3 μL of stop solution (final concentration of 10 mM citric acid (Sigma, 251275-500G)). Fluorescence was read on the Envision (Excitation at 485 nm and Emission at 535 nm; Perkin Elmer) or on the PheraSTAR (Excitation at 485 nm and Emission at 535 nm; BMG Labtech).
Procedure for the Protein Expression and Purification for Construct His-Tagged USP28-FL-Mammalian
Expression of USP28 (1-1077)-TEV-6*His (pTT5 vector) was carried out in Expi293f cells (sequence derived from uniprot ID: Q96RU2-1). Cells were re-suspended in lysis buffer B 50 mM Bicine, pH 8.0, 20 mM NaCl, 5% glycerol, 0.1% CHAPS, 5 mM β-ME, 1 mM PMSF, 1 ug/ml Leupeptin, 1 ug/ml Pepstatin) and lysed by sonication. Insoluble material was removed by centrifugation and the supernatant was loaded onto a Ni-NTA column (GE Healthcare) equilibrated with Ni Buffer A (50 mM Bicine, pH 8.0, 20 mM NaCl, 5% glycerol, 0.1% CHAPS, 5 mM β-ME.) and washed with Ni Buffer A+20 mM imidazole until A280 reached baseline. The protein was eluted with Ni Buffer B (50 mM Bicine, pH 8.0, 20 mM NaCl, 5% glycerol, 0.1% CHAPS, 5 mM β-ME, 300 mM imidazole.). The protein was further purified using a Superdex™ 200 10/300 GL column (GE Healthcare) equilibrated with 50 mM Bicine, pH 8.0, 20 mM NaCl, 5% glycerol, 0.1% CHAPS, 5 mM β-ME. The protein was concentrated to 2.5 mg ml^−1, flash-frozen in liquid N2 and stored at −80° C.
For assay formats Example A-1(a), A-1(b), and A-2, data were reported as percent inhibition compared with control wells based on the following equation: % inh=1−((FLU−AveLow)/(AveHigh−AveLow)) where FLU=measured Fluorescence, AveLow=average Fluorescence of no enzyme control (n=16), and AveHigh=average Fluorescence of DMSO control (n=16). IC50 values were determined by curve fitting of the standard 4 parameter logistic fitting algorithm included in the Activity Base software package: IDBS XE Designer Model 205. Data is fitted using the Levenburg Marquardt algorithm.
Regarding `CO[C@H]1CN(c2ncc3c(n2)CC[C@H](NC(=O)c2sc4nc(C)cc(C)c4c2N)C3)C[C@@H]1N` [Example 273, 3-amino-N-[(6S)-2-[(3S,4S)-3-amino-4-methoxypyrrolidin-1-yl]-5,6,7,8-tetrahydroquinazolin-6-yl]-4,6-dimethylthieno[2,3-b]pyridine-2-carboxamide], the IC50 is more than 2 µM.
Turning to `CCn1ccc2cc(C(=O)N[C@H]3CCc4nc(N5C[C@H](N)C6(COC6)C5)ccc4C3)cnc21` [Example 403, N-[(6S)-2-[(8R)-8-amino-2-oxa-6-azaspiro[3.4]octan-6-yl]-5,6,7,8-tetrahydroquinolin-6-yl]-1-ethyl-1H-pyrrolo[2,3-b]pyridine-5-carboxamide], the IC50 was more than 2 µM.
For `Cc1ccc2c(N)c(C(=O)N[C@H]3CCc4nc(N5C[C@@H](N)[C@H](C(F)F)C5)ncc4C3)sc2n1` [Example 381, 3-amino-N-[(6S)-2-[(3S,4R)-3-amino-4-(difluoromethyl)pyrrolidin-1-yl]-5,6,7,8-tetrahydroquinazolin-6-yl]-6-methylthieno[2,3-b]pyridine-2-carboxamide], the IC50 lay within 0.2 to 2 µM.
For the molecule `Cc1ccc2c(N)c(C(=O)N[C@H]3CCc4nc(N5C[C@H]6CCN[C@@H](C5)C6(F)F)ccc4C3)sc2n1` [Example 368, 3-amino-N-[(6S)-2-[(1S,5R)-9,9-difluoro-2,7-diazabicyclo[3.3.1]nonan-7-yl]-5,6,7,8-tetrahydroquinolin-6-yl]-6-methylthieno[2,3-b]pyridine-2-carboxamide], the IC50 lay in the range of 0.001 to 0.05 µM.
Then `Cc1ccc2c(N)c(C(=O)N[C@H]3CCc4nc(N5CC[C@@]6(C5)OCC[C@H]6N)ccc4C3)sc2n1` [Example 405, 3-amino-N-[(6S)-2-[(4R,5S)-4-amino-1-oxa-7-azaspiro[4.4]nonan-7-yl]-5,6,7,8-tetrahydroquinolin-6-yl]-6-methylthieno[2,3-b]pyridine-2-carboxamide], with 0.05 to 0.2 µM; and `Cc1cc(C)c2c(N)c(C(=O)N[C@H]3CCc4nc(N5C[C@H](OC(C)C)[C@@H](N)C5)ncc4C3)sc2n1` (single isomer, unassigned) [Example 31-1], with 0.05 to 0.2 µM.
In the case of `Cc1ccc2c(N)c(C(=O)N[C@H]3COc4nc(N5C[C@@H](N)[C@H](C(F)F)C5)ccc4C3)sc2n1` [Example 379, 3-amino-N-[(3R)-7-[(3S,4R)-3-amino-4-(difluoromethyl)pyrrolidin-1-yl]-2H,3H,4H-pyrano[2,3-b]pyridin-3-yl]-6-methylthieno[2,3-b]pyridine-2-carboxamide], the IC50 is 0.2 to 2 µM.
Then `Cc1ccc2c(N)c(C(=O)N[C@H]3CCc4nc(N5C[C@H]6COC[C@@]6(N)C5)ccc4C3)sc2n1` [Example 395, N-[(6S)-2-[(3aS,6aR)-3a-amino-hexahydro-1H-furo[3,4-c]pyrrol-5-yl]-5,6,7,8-tetrahydroquinolin-6-yl]-3-amino-6-methylthieno[2,3-b]pyridine-2-carboxamide], with 0.05 to 0.2 µM; and `Cc1ccc2c(N)c(C(=O)N[C@H]3CCc4cc(N5C[C@@H](CF)[C@@H](N)C5)ccc4C3)sc2n1` [Example 436, 3-amino-N-[(2S)-6-[(3R,4R)-3-amino-4-(fluoromethyl)pyrrolidin-1-yl]-1,2,3,4-tetrahydronaphthalen-2-yl]-6-methylthieno[2,3-b]pyridine-2-carboxamide], with 0.001 to 0.05 µM; and `Cc1ccc2c(N)c(C(=O)N[C@H]3CCc4nc(N5C[C@H]6COC[C@@H](C5)[C@H]6N)ccc4C3)sc2n1` [Example 396, 3-amino-6-methyl-N-[(6S)-2-[(1R,5S,9r)-9-amino-3-oxa-7-azabicyclo[3.3.1]nonan-7-yl]-5,6,7,8-tetrahydroquinolin-6-yl]thieno[2,3-b]pyridine-2-carboxamide], with 0.05 to 0.2 µM.
As for `Cc1ccc2c(N)c(C(=O)N[C@H]3CCc4nc(N5CC[C@]6(C5)OCC[C@@H]6N)ccc4C3)sc2n1` [Example 406, 3-amino-N-[(6S)-2-[(4S,5R)-4-amino-1-oxa-7-azaspiro[4.4]nonan-7-yl]-5,6,7,8-tetrahydroquinolin-6-yl]-6-methylthieno[2,3-b]pyridine-2-carboxamide], the IC50 was in the range of 0.2 to 2 µM.
Take `Cc1cc(C)c2c(N)c(C(=O)N[C@@H]3CCc4nc(N5C[C@H](OC(C)C)[C@@H](N)C5)ncc4C3)sc2n1` (single isomer, unassigned) [Example 31-2]: the IC50 was more than 2 µM.
On to `CN[C@H]1CN(c2ccc3c(n2)CC[C@H](NC(=O)c2sc4nc(C)ccc4c2N)C3)C[C@@H]1COC` (single isomer, unassigned) [Example 26-1], for which the IC50 lay in the range of 0.05 to 0.2 µM.
`Cc1ccc2c(N)c(C(=O)N[C@H]3CCc4nc(N5C[C@H]6COC[C@@H](C5)[C@@H]6N)ccc4C3)sc2n1` [Example 397, 3-amino-6-methyl-N-[(6S)-2-[(1R,5S,9s)-9-amino-3-oxa-7-azabicyclo[3.3.1]nonan-7-yl]-5,6,7,8-tetrahydroquinolin-6-yl]thieno[2,3-b]pyridine-2-carboxamide]: the IC50 fell in the range of 0.05 to 0.2 µM.
Turning to `CO[C@]12CCN[C@@H]1CN(c1ccc3c(n1)CC[C@H](NC(=O)c1sc4nc(C)ccc4c1N)C3)C2` [Example 435, N-[(6S)-2-[(3aS,6aR)-3a-methoxy-octahydropyrrolo[2,3-c]pyrrol-5-yl]-5,6,7,8-tetrahydroquinolin-6-yl]-3-amino-6-methylthieno[2,3-b]pyridine-2-carboxamide], the IC50 was in the range of 0.05 to 0.2 µM.
On to `CO[C@H]1CN(c2ncc3c(n2)CC[C@H](NC(=O)c2sc4nc(C)ccc4c2N)C3)C[C@@H]1N` [Example 186, 3-amino-N-[(6S)-2-[(3S,4S)-3-amino-4-methoxypyrrolidin-1-yl]-5,6,7,8-tetrahydroquinazolin-6-yl]-6-methylthieno[2,3-b]pyridine-2-carboxamide], for which the IC50 was more than 2 µM.
